24 compounds from patent US10385022B2, “3-amino-pyridines as GPBAR1 agonists” (HOFFMANN-LA ROCHE INC., priority 2011, dated 2019) can be followed below.

Usually EC50 stands for the concentration that produces a half-maximal response. Lower therefore signals an effect from little substance.

This assay deals with human GPBAR1 receptor (Homo sapiens (Human), UniProt Q8TDU6). Nature of the assay: functional cAMP assay in CHO-dhfr(minus) cells expressing human GPBAR1 receptors. It is filed as cell-based. Conditions: CHO-dhfr(minus) cells expressing human GPBAR1, 30 min at 30° C. Put shortly: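 CHO-dhfr- cells were transfected with human GPBAR1, and a clone was chosen by cAMP response to lithocholic acid. EC50 values come from the cAMP read-out; specificity was checked in non-transfected CHO cells.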
Chain of human GPBAR1 receptor (Q8TDU6 whole entry): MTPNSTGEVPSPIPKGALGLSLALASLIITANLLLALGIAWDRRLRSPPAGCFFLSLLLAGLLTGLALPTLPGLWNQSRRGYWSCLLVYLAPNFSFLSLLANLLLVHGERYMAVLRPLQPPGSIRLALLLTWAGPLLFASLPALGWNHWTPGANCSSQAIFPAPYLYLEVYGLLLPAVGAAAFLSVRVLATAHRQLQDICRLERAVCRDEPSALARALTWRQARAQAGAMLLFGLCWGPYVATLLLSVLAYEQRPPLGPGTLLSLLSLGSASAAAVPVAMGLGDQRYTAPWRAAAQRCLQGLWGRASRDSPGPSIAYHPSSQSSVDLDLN
In turn, `COC(=O)CN(C(=O)c1cc(C(F)(F)F)nc(C(F)(F)F)c1)c1cnccc1-c1ccc(F)cc1OC` [Example 176, {(2,6-Bis-trifluoromethyl-pyridine-4-carbonyl)-[4-(4-fluoro-2-methoxy-phenyl)-pyridin-3-yl]-amino}-acetic acid methyl ester] showed an EC50 of 14 nM.

Compound `COc1cc(F)ccc1-c1ccncc1N(C)C(=O)c1cc(SCCNC(=O)OC(C)(C)C)cc(C(F)(F)F)c1` [Example 234, [2-(3-{[4-(4-Fluoro-2-methoxy-phenyl)-pyridin-3-yl]-methyl-carbamoyl}-5-trifluoromethyl-phenylsulfanyl)-ethyl]-carbamic acid tert-butyl ester] yielded an EC50 of 405 nM.

`COc1cc(F)c(F)cc1-c1ccncc1N(C)C(=O)c1cc(C(F)(F)F)nc(C(F)(F)F)c1` [Example 144, N-[4-(4,5-Difluoro-2-methoxy-phenyl)-pyridin-3-yl]-N-methyl-2,6-bis-trifluoromethyl-isonicotinamide] gave an EC50 of 22 nM.

`Cc1ccccc1-c1ccncc1N(C)C(=O)c1ccc(C(F)(F)F)cc1` [Example 90, N-Methyl-N-(4-o-tolyl-pyridin-3-yl)-4-trifluoromethyl-benzamide] showed an EC50 of 2740 nM.

In turn, `COc1cc(F)ccc1-c1ccncc1N(C)C(=O)c1cc(SCCN2CCC2)cc(C(F)(F)F)c1` [Example 259, 3-(2-Azetidin-1-yl-ethylsulfanyl)-N-[4-(4-fluoro-2-methoxy-phenyl)-pyridin-3-yl]-N-methyl-5-trifluoromethyl-benzamide] had an EC50 of 134 nM.

In the case of `COc1ccc(F)cc1-c1ccncc1N(C)C(=O)c1cc(C(F)(F)F)cc(C(F)(F)F)c1` [Example 58, N-[4-(5-Fluoro-2-methoxy-phenyl)-pyridin-3-yl]-N-methyl-3,5-bis-trifluoromethyl-benzamide], the EC50 came out at 26 nM.

`COc1cc(F)c(F)cc1-c1ccncc1N(CC(F)F)C(=O)c1cc(C(F)(F)F)nc(C(F)(F)F)c1` [Example 154, N-(2,2-Difluoro-ethyl)-N-[4-(4,5-difluoro-2-methoxy-phenyl)-pyridin-3-yl]-2,6-bis-trifluoromethyl-isonicotinamide] gave an EC50 of 39 nM.

As for `CN(C(=O)c1cc(C(F)(F)F)cc(C(F)(F)F)c1)c1cnccc1-c1cccc(F)c1Cl` [Example 65, N-[4-(2-Chloro-3-fluoro-phenyl)-pyridin-3-yl]-N-methyl-3,5-bis-trifluoromethyl-benzamide], it took 102 nM to reach a half-maximal effect (EC50).

Consider `COc1cc(-c2ccncc2N(C)C(=O)c2cc(C(F)(F)F)cc(S(C)(=O)=O)c2)c(F)cc1F` [Example 284, N-[4-(2,4-Difluoro-5-methoxy-phenyl)-pyridin-3-yl]-3-methanesulfonyl-N-methyl-5-trifluoromethyl-benzamide], for which the EC50 amounted to 353 nM.

In turn, `COc1cc(F)ccc1-c1ccncc1N(CC1CCOC1)C(=O)c1cc(C(F)(F)F)cc(S(C)(=O)=O)c1` (stereo not drawn) [Example 273, N-[4-(4-Fluoro-2-methoxy-phenyl)-pyridin-3-yl]-3-methanesulfonyl-N-(tetrahydro-furan-3-ylmethyl)-5-trifluoromethyl-benzamide] displayed an EC50 of 1500 nM.

In the case of `COc1cc(F)ccc1-c1ccnc(Cl)c1N(C)C(=O)c1cc(C(F)(F)F)cc(S(C)(=O)=O)c1` [Example 212, N-[2-Chloro-4-(4-fluoro-2-methoxy-phenyl)-pyridin-3-yl]-3-methanesulfonyl-N-methyl-5-trifluoromethyl-benzamide], a half-maximal response (EC50) required 75 nM.

As to `O=C(c1cc(C(F)(F)F)cc(C(F)(F)F)c1)N(CC(F)F)c1cnccc1-c1ccccc1Cl` [Example 116, N-[4-(2-Chloro-phenyl)-pyridin-3-yl]-N-(2,2-difluoro-ethyl)-3,5-bis-trifluoromethyl-benzamide], the EC50 was 88 nM.

`Cc1ccccc1-c1ccncc1N(C)C(=O)c1cc(F)c(F)c(F)c1` [Example 104, 3,4,5-Trifluoro-N-methyl-N-(4-o-tolyl-pyridin-3-yl)-benzamide] registered an EC50 of 1640 nM.

`COC(=O)CN(C(=O)c1cc(C(F)(F)F)nc(C(F)(F)F)c1)c1cnccc1-c1cc(F)c(F)cc1OC` [Example 173, {(2,6-Bis-trifluoromethyl-pyridine-4-carbonyl)-[4-(4,5-difluoro-2-methoxy-phenyl)-pyridin-3-yl]-amino}-acetic acid methyl ester] yielded an EC50 of 53 nM.

Turning to `CC(C)Oc1ccccc1-c1ccncc1N(C)C(=O)c1cc(C(F)(F)F)cc(C(F)(F)F)c1` [Example 35, N-[4-(2-Isopropoxy-phenyl)-pyridin-3-yl]-N-methyl-3,5-bis-trifluoromethyl-benzamide], the EC50 is 163 nM.

Take `COc1ncccc1-c1ccncc1N(C)C(=O)c1cc(C(F)(F)F)cc(C(F)(F)F)c1` [Example 32, N-(2-Methoxy-[3,4′]bipyridinyl-3′-yl)-N-methyl-3,5-bis-trifluoromethyl-benzamide]: it took 9 nM to reach a half-maximal effect (EC50).

On to `CN(C(=O)c1cc(C(F)(F)F)cc(S(C)(=O)=O)c1)c1cnccc1-c1ccccc1Cl` [Example 278, N-[4-(2-Chloro-phenyl)-pyridin-3-yl]-3-methanesulfonyl-N-methyl-5-trifluoromethyl-benzamide], for which the EC50 worked out at 107 nM.

Consider `COc1cc(F)ccc1-c1cc(C)ncc1N(C)C(=O)c1cc(C(F)(F)F)cc(S(C)(=O)=O)c1` [Example 202, N-[4-(4-Fluoro-2-methoxy-phenyl)-6-methyl-pyridin-3-yl]-3-methanesulfonyl-N-methyl-5-trifluoromethyl-benzamide], for which the EC50 came out at 157 nM.

`Cc1ccccc1-c1cc(N)ncc1N(C)C(=O)c1cc(C(F)(F)F)cc(C(F)(F)F)c1` [Example 16] gave an EC50 of 184 nM.

Take `Cc1ccccc1-c1ccncc1N(C)C(=O)c1cc(C(F)(F)F)cc(S(=O)(=O)N(C)C)c1` [Example 128, 3-Dimethylsulfamoyl-N-methyl-N-(4-o-tolyl-pyridin-3-yl)-5-trifluoromethyl-benzamide]: a half-maximal response (EC50) required 29 nM.

Turning to `CN(C(=O)c1cc(C(F)(F)F)cc(C(F)(F)F)c1)c1cnccc1-c1ccncc1F` [Example 70, N-(3′-Fluoro-[4,4′]bipyridinyl-3-yl)-N-methyl-3,5-bis-trifluoromethyl-benzamide], the concentration for a half-maximal effect (EC50) came out at 485 nM.

The compound `COc1cc(F)ccc1-c1ccncc1N(C)C(=O)c1cc(SCCNS(N)(=O)=O)cc(C(F)(F)F)c1` [Example 261, N-[4-(4-fluoro-2-methoxyphenyl)pyridin-3-yl]-N-methyl-3-{[2-(sulfamoylamino)ethyl]-sulfanyl}-5-(trifluoromethyl)benzamide] showed an EC50 of 190 nM.

Compound `CS(=O)(=O)c1cc(C(=O)N(CC#N)c2cnccc2-c2ccccc2OC(F)(F)F)cc(C(F)(F)F)c1` [Example 311, N-Cyanomethyl-3-methanesulfonyl-N-[4-(2-trifluoromethoxy-phenyl)-pyridin-3-yl]-5-trifluoromethyl-benzamide] displayed a concentration giving a half-maximal response (EC50) of 81 nM.

Compound `COc1cc(F)ccc1-c1ccncc1N(C)C(=O)c1cc(C(F)(F)F)cc(S(=O)(=O)CCNS(C)(=O)=O)c1` [Example 270, N-[4-(4-Fluoro-2-methoxy-phenyl)-pyridin-3-yl]-3-(2-methanesulfonylamino-ethanesulfonyl)-N-methyl-5-trifluoromethyl-benzamide] yielded an EC50 of 133 nM.
